Measurements reported in ChEMBL document CHEMBL4627246, “Pyroglutamide-Based P2X7 Receptor Antagonists Targeting Inflammatory Bowel Disease” (J Med Chem, 2020).

Assays:
Format in all cases: cell-based
M14 = test: Cytotoxicity against human M14 cells assessed as effect on cell growth at 10 uM incubated for 48 hrs by sulforhodamine B assay; settings: m14, 48 h
SK-MEL-2 = test: Cytotoxicity against human SK-MEL-2 cells assessed as effect on cell growth at 10 uM incubated for 48 hrs by sulforhodamine B assay; settings: sk-mel-2, 48 h
HOP-62 = test: Cytotoxicity against human HOP62 cells assessed as effect on cell growth at 10 uM incubated for 48 hrs by sulforhodamine B assay; settings: hop-62, 48 h
SNB-19 = test: Cytotoxicity against human SNB19 cells assessed as effect on cell growth at 10 uM incubated for 48 hrs by sulforhodamine B assay; settings: snb-19, 48 h
K562 = test: Cytotoxicity against human K562 cells assessed as effect on cell growth at 10 uM incubated for 48 hrs by sulforhodamine B assay; settings: k562, 48 h
UACC-62 = test: Cytotoxicity against human UACC62 cells assessed as effect on cell growth at 10 uM incubated for 48 hrs by sulforhodamine B assay; settings: uacc-62, 48 h
NCI-H522 = test: Cytotoxicity against human NCI-H522 cells assessed as effect on cell growth at 10 uM incubated for 48 hrs by sulforhodamine B assay; settings: nci-h522, 48 h
DU-145 = test: Cytotoxicity against human DU145 cells assessed as effect on cell growth at 10 uM incubated for 48 hrs by sulforhodamine B assay; settings: du-145, 48 h
MCF7 = test: Cytotoxicity against human MCF7 cells assessed as effect on cell growth at 10 uM incubated for 48 hrs by sulforhodamine B assay; settings: mcf7, 48 h
MOLT-4 = test: Cytotoxicity against human MOLT4 cells assessed as effect on cell growth at 10 uM incubated for 48 hrs by sulforhodamine B assay; settings: molt-4, 48 h
UO-31 = test: Cytotoxicity against human UO31 cells assessed as effect on cell growth at 10 uM incubated for 48 hrs by sulforhodamine B assay; settings: uo-31, 48 h
Hs-578T = test: Cytotoxicity against human Hs 578T cells assessed as effect on cell growth at 10 uM incubated for 48 hrs by sulforhodamine B assay
RXF 393 = test: Cytotoxicity against human RXF393 cells assessed as effect on cell growth at 10 uM incubated for 48 hrs by sulforhodamine B assay; settings: rxf 393, 48 h
SK-OV-3 = test: Cytotoxicity against human SKOV3 cells assessed as effect on cell growth at 10 uM incubated for 48 hrs by sulforhodamine B assay; settings: sk-ov-3, 48 h
EKVX = test: Cytotoxicity against human EKVX cells assessed as effect on cell growth at 10 uM incubated for 48 hrs by sulforhodamine B assay
CAKI-1 = test: Growth inhibition of human Caki1 cells assessed as growth percentage at 10 uM incubated for 48 hrs by sulforhodamine B assay; settings: caki-1, 48 h
MDA-MB-435 = test: Cytotoxicity against human MDA-MB-435 cells assessed as effect on cell growth at 10 uM incubated for 48 hrs by sulforhodamine B assay; settings: mda-mb-435, 48 h
HCT-15 = test: Cytotoxicity against human HCT15 cells assessed as effect on cell growth at 10 uM incubated for 48 hrs by sulforhodamine B assay; settings: hct-15, 48 h
SK-MEL-5 = test: Cytotoxicity against human SK-MEL-5 cells assessed as effect on cell growth at 10 uM incubated for 48 hrs by sulforhodamine B assay; settings: sk-mel-5, 48 h
TK-10 = test: Cytotoxicity against human TK10 cells assessed as effect on cell growth at 10 uM incubated for 48 hrs by sulforhodamine B assay; settings: tk-10, 48 h

Measured: Activity

O=C1N[C@H](C(=O)NCc2ccc(Cl)cc2Cl)C/C1=C\N1CCOCC1
Non-Toxic: M14 | SK-MEL-2 | HOP-62 | SNB-19 | K562 | UACC-62 | NCI-H522 | DU-145 | MCF7 | MOLT-4 | UO-31 | Hs-578T | RXF 393 | SK-OV-3 | EKVX | CAKI-1 | MDA-MB-435 | HCT-15 | SK-MEL-5 | TK-10

COc1ccc(N2C(=O)CC[C@H]2C(=O)NCc2ccc(Cl)cc2Cl)cc1
Non-Toxic: M14 | SK-MEL-2 | HOP-62 | SNB-19 | K562 | UACC-62 | NCI-H522 | DU-145 | MCF7 | MOLT-4 | UO-31 | Hs-578T | RXF 393 | SK-OV-3 | EKVX | CAKI-1 | MDA-MB-435 | HCT-15 | SK-MEL-5 | TK-10

CN1CCN(/C=C2\C[C@@H](C(=O)NCc3ccc(Cl)cc3Cl)N(c3cccs3)C2=O)CC1
Non-Toxic: M14 | SK-MEL-2 | HOP-62 | SNB-19 | K562 | UACC-62 | NCI-H522 | DU-145 | MCF7 | MOLT-4 | UO-31 | Hs-578T | RXF 393 | SK-OV-3 | EKVX | CAKI-1 | MDA-MB-435 | HCT-15 | SK-MEL-5 | TK-10

COc1ccc(NC(=O)[C@@H]2C/C(=C\N(C)C)C(=O)N2)cc1
Non-Toxic: M14 | SK-MEL-2 | HOP-62 | SNB-19 | K562 | UACC-62 | NCI-H522 | DU-145 | MCF7 | MOLT-4 | UO-31 | Hs-578T | RXF 393 | SK-OV-3 | EKVX | CAKI-1 | MDA-MB-435 | HCT-15 | SK-MEL-5 | TK-10
